Test results published in article PMC6912857 (Journal of Medicinal Chemistry, 2019).
“Also recorded” adds a separate entry of the source. Values belong to the compound of their own block, whether it stands above or below them.

Key:
hH3R = hH3R (Homo sapiens, UniProt Q9Y5N1); experiment: CRE-luciferase reporter gene assay, hH3R expressed on HEK293T cells; type: cell-based; conditions: intrinsic activity compared to histamine
H2R = H2R (Homo sapiens, UniProt P25021); experiment: CRE-luciferase reporter gene assay, H2R; type: cell-based; conditions: up to 10 μM
Sequence of H2R (P25021 whole entry, species assumed): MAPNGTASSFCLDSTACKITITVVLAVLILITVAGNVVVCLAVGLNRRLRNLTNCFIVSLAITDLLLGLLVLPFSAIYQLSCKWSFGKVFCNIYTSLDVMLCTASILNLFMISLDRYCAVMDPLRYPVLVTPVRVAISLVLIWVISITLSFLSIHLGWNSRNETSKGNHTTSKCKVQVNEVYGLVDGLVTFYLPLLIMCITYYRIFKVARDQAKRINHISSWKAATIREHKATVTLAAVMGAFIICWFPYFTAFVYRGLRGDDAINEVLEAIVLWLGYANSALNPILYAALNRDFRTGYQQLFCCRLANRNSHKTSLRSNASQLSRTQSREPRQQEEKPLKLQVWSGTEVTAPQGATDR

[1] = Metabolic stability in mouse liver microsomes
H1R = H1R (Homo sapiens, UniProt P35367); experiment: NFAT-luciferase reporter gene assay, H1R; type: cell-based; conditions: up to 10 μM
Sequence of H1R (P35367 whole entry, species assumed): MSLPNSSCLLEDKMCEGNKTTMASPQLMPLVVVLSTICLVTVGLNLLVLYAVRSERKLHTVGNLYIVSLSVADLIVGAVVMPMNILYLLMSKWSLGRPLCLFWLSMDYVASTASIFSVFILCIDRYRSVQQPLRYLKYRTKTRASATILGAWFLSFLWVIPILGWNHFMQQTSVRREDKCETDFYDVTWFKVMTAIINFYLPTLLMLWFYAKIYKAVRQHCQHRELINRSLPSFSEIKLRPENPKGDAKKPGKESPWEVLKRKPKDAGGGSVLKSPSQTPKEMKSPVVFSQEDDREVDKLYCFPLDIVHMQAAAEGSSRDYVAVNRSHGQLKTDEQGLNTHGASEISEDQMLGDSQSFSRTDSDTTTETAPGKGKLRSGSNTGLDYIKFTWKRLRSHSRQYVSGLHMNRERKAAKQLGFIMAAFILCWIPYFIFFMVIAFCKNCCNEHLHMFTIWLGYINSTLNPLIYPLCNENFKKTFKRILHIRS

[2] = Nephelometry / aqueous solubility; type: physicochemical; conditions: up to 100 mM concentration
mH4R = target: T1, mH4R (Mus musculus, UniProt Q91ZY2); experiment: CRE-luciferase reporter gene assay, mH4R expressed on HEK293T cells; type: cell-based
T1 sequence (Q91ZY2 1-391): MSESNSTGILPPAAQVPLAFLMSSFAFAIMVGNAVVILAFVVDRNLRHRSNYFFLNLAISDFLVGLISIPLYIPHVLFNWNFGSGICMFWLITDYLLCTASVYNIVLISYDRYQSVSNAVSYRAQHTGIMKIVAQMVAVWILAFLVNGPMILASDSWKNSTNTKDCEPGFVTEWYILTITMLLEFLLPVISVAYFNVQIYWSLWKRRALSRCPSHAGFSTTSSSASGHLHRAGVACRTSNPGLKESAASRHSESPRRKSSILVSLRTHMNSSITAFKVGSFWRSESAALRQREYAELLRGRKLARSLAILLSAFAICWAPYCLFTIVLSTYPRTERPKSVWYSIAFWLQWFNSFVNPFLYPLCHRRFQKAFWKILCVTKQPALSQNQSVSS

Male C57Bl6 mice = experiment: Social recognition test in mice
rats = conditions: cited from earlier work
[3] = cited from earlier work

Sequence of hH3R (Q9Y5N1 whole entry): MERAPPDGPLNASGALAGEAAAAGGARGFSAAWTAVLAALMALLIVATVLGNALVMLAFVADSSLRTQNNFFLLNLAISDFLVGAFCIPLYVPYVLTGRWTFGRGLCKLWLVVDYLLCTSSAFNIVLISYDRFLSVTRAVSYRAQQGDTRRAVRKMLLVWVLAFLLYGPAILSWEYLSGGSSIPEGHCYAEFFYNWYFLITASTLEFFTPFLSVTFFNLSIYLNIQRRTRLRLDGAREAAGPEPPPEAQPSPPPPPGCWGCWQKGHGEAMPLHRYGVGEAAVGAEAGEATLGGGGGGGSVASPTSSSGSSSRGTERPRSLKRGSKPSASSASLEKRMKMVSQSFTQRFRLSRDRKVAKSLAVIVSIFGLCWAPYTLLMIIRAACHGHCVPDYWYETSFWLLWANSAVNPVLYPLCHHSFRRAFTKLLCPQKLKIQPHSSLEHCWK

α (intrinsic activity) (hH3R): ~1.0
SMILES: CCNC1CN(c2cc(CC)nc(N)n2)C1 [12c, 4-Ethyl-6-(3-(ethylamino)azetidin-1-yl)pyrimidin-2-amine]

activation of H2R (H2R): does not activate
slower elimination compared with the reference control verapamil ([1]; mouse liver microsomes): more than 2 times
half-life at 50 μM ([1]; mouse, microsomes, pH 7.4): 131 min
activation of H1R (H1R): does not activate
microprecipitation (nephelometry) [2]: no microprecipitation
selectivity in potency mH3R vs mH4R (mH4R): > 10 fold
SMILES: CCCNC1CN(c2ccnc(N)n2)C1.O.O=C(O)/C=C/C(=O)O [14d, 4-(3-(Propylamino)azetidin-1-yl)pyrimidin-2-amine Fumarate Hydrate]
CNS / brain penetration (Male C57Bl6 mice; indicated by effects in the in vivo social memory test, 5 mg/kg i.p., 5 mg/kg): clearly penetrating the CNS; also recorded: appreciable brain penetration
discrimination index (DI) (Male C57Bl6 mice; mice, 5 mg/kg i.p.): negative
social recognition memory (discrimination of novel vs familiar mouse) (Male C57Bl6 mice; mice, 5 mg/kg i.p. 30 min before the training session, 5 mg/kg): amnesic effects; also recorded: did not discriminate between the novel and the familiar mouse; also recorded: impairs social recognition
exploration time of the cage during test (Male C57Bl6 mice; mice, 5 mg/kg i.p., during test): 148.3 ± 69.4 s
exploration time of the cage during training (Male C57Bl6 mice; mice, 5 mg/kg i.p., during training): 136.2 ± 44.1 s
sociability (Male C57Bl6 mice; mice, 5 mg/kg i.p., training session): did not affect

SMILES: N=C(N)SCCc1cnc[nH]1 [Imetit, imetit]
effect on memory in the object recognition and passive avoidance tests (rats): memory impairments

SMILES: c1ncc(CC2CCNCC2)[nH]1 [immepip]
effect on memory in the social recognition test [3]: cause amnesia

SMILES: S=C(NC1CCCCC1)N1CCC(c2cnc[nH]2)CC1 [thioperamide]
effect on memory in the social recognition test [3]: improve short-term memory
